Experimental data published in ChEMBL document CHEMBL5113401, “Novel 1,3,4-oxadiazole chalcogen analogues: Synthesis and cytotoxic activity” (Eur J Med Chem, 2022).
Each block holds one compound with its values, some of them ahead of it. Active and inactive are the calls of the source. The calls are words filed in the database; no cut-off is given here.

Legend:
MCF7 = assay: Antiproliferative activity against human MCF7 cells assessed as inhibition of cell growth incubated for 48 hrs by XTT assay; assay type: functional, cell-based; settings: MCF7, 48 h
HeLa [1] = assay: Antiproliferative activity against human HeLa cells assessed as inhibition of cell growth incubated for 48 hrs by XTT assay; assay type: functional, cell-based
PC-3 [2] = assay: Antiproliferative activity against human PC-3 cells assessed as inhibition of cell growth incubated for 48 hrs by XTT assay; assay type: functional, cell-based; settings: PC-3, 48 h
Tubulin (Homo sapiens) [3] = target: T1, Tubulin (Homo sapiens) (UniProt P68371+Q9H4B7+P0DPH7+P68366+Q13509+Q71U36+P04350+Q3ZCM7+P07437+P68363+Q9BQE3+Q6PEY2+Q13885+Q9BVA1+Q9BUF5); assay: Inhibition of tubulin polymerization in human HeLa cells assessed as abnormal microtubule network at 0.5 uM incubated for 6 hrs by DAPI staining based fluorescence microscopic analysis; assay type: cell-based
HeLa [4] = assay: Induction of apoptosis in human HeLa cells assessed as viable cells at 1 uM incubated for 24 hrs by Annexin V-FITC/7-AAD staining based flow cytometric analysis (reference value: 85.6 +/- 1.061%); assay type: functional; settings: read-out: Activity
HeLa [5] = assay: Induction of apoptosis in human HeLa cells assessed as early apoptotic cells at 1 uM incubated for 24 hrs by Annexin V-FITC/7-AAD staining based flow cytometric analysis (reference value: 2.7 +/- 0.424 %); assay type: functional
PC-3 [6] = assay: Induction of cell cycle arrest in human PC-3 cells assessed as accumulation of cells at G2/M phase at 1 uM incubated for 12 hrs by FACS flow cytometry analysis (reference value: 20.74 +/- 1.95 %); assay type: functional
HeLa [7] = assay: Inhibition of colony formation in human HeLa cells at IC50 incubated for 2 weeks with culture medium replacement for every 3 days by crystal violet staining based analysis; assay type: functional, cell-based
PC-3 [8] = assay: Induction of cell cycle arrest in human PC-3 cells assessed as accumulation of cells at G2/M phase at 1 uM incubated for 6 hrs by FACS flow cytometry analysis (reference value: 20.74 +/- 1.93 %); assay type: functional
HFF-1 = assay: Cytotoxicity against HFF-1 cells assessed as reduction in cell viability at 1 to 2 uM incubated for 48 hrs by XTT assay; assay type: toxicity, cell-based; settings: human, hff-1, 48 h, dose 1-2 µM
PC-3 [9] = assay: Induction of cell cycle arrest in human PC-3 cells assessed as accumulation of cells at S phase at 1 uM incubated for 12 hrs by FACS flow cytometry analysis (reference value: 35.06 +/- 1.36 %); assay type: functional
HeLa [10] = assay: Induction of cell cycle arrest in human HeLa cells assessed as accumulation of cells at G1 phase at 1 uM incubated for 6 hrs by FACS flow cytometry analysis (reference value: 69.94 +/- 1.71 %); assay type: functional
HeLa [11] = assay: Induction of apoptosis in human HeLa cells assessed as dead cells at 1 uM incubated for 24 hrs by Annexin V-FITC/7-AAD staining based flow cytometric analysis (reference value: 0.6 +/- 0.707 %); assay type: functional
PC-3 [12] = assay: Induction of cell cycle arrest in human PC-3 cells assessed as accumulation of cells at G1 phase at 1 uM incubated for 12 hrs by FACS flow cytometry analysis (reference value: 44.2 +/- 2.01 %); assay type: functional
PC-3 [13] = assay: Induction of cell cycle arrest in human PC-3 cells assessed as accumulation of cells at G1 phase at 1 uM incubated for 6 hrs by FACS flow cytometry analysis (reference value: 44.2 +/- 2.21 %); assay type: functional
HeLa [14] = assay: Induction of cell cycle arrest in human HeLa cells assessed as accumulation of cells at G2/M phase at 1 uM incubated for 6 hrs by FACS flow cytometry analysis (reference value: 12.66 +/- 0.88 %); assay type: functional
PC-3 [15] = assay: Induction of cell cycle arrest in human PC-3 cells assessed as accumulation of cells at S phase at 1 uM incubated for 6 hrs by FACS flow cytometry analysis (reference value: 35.06 +/- 1.85 %); assay type: functional
HeLa [16] = assay: Induction of cell cycle arrest in human HeLa cells assessed as accumulation of cells at G2/M phase at 1 uM incubated for 18 hrs by FACS flow cytometry analysis (reference value: 12.66 +/- 0.92 %); assay type: functional
HeLa [17] = assay: Induction of cell cycle arrest in human HeLa cells assessed as accumulation of cells at S phase at 1 uM incubated for 6 hrs by FACS flow cytometry analysis (reference value: 17.41 +/- 0.96 %); assay type: functional
HeLa [18] = assay: Induction of apoptosis in human HeLa cells assessed as late apoptotic cells at 1 uM incubated for 24 hrs by Annexin V-FITC/7-AAD staining based flow cytometric analysis (reference value: 11.1 +/- 0.778 %); assay type: functional
NB1 = assay: Cytotoxicity against human NB1 cells immortalized with hTERT plasmid assessed as reduction in cell viability at 1 to 2 uM incubated for 48 hrs by XTT assay; assay type: toxicity, cell-based; settings: nb1, 48 h, dose 1-2 µM
HeLa [19] = assay: Induction of cell cycle arrest in human HeLa cells assessed as accumulation of cells at G1 phase at 1 uM incubated for 18 hrs by FACS flow cytometry analysis (reference value: 69.94 +/- 1.25 %); assay type: functional
HeLa [20] = assay: Induction of cell cycle arrest in human HeLa cells assessed as accumulation of cells at S phase at 1 uM incubated for 18 hrs by FACS flow cytometry analysis (reference value: 17.41 +/- 1.16 %); assay type: functional
PC-3 [21] = assay: Inhibition of colony formation in human PC-3 cells at IC50 incubated for 2 weeks with culture medium replacement for every 3 days by crystal violet staining based analysis; assay type: functional, cell-based
Tubulin (Homo sapiens) [22] = target: T1, Tubulin (Homo sapiens); assay: Inhibition of tubulin polymerization in human HeLa cells assessed as aberrations in mitotic spindle and nucleus at 0.5 uM incubated for 6 hrs by DAPI staining based fluorescence microscopic analysis; assay type: cell-based
Tubulin (Homo sapiens) [23] = target: T1, Tubulin (Homo sapiens); assay: Inhibition of tubulin polymerization in human HeLa cells assessed as irregular cell morphology at 0.5 uM incubated for 6 hrs by DAPI staining based fluorescence microscopic analysis

IC50 (MCF7): > 10 µM
IC50 (HeLa [1]): > 10 µM
IC50 (PC-3 [2]): > 10 µM
SMILES: Cc1[nH]c2c(c1-c1nnc(-c3cccc(Cl)c3)s1)Cc1ccccc1-2

SMILES: Cc1[nH]c2c(c1-c1nnc(-c3ccc(Cl)cc3)[se]1)Cc1ccccc1-2
IC50 (MCF7): > 10 µM
IC50 (HeLa [1]): > 10 µM
IC50 (PC-3 [2]): > 10 µM

IC50 (MCF7): > 10 µM
IC50 (HeLa [1]): > 10 µM
IC50 (PC-3 [2]): > 10 µM
SMILES: Cc1[nH]c2c(c1-c1nnc(-c3ccc(Cl)c(Cl)c3)s1)Cc1ccccc1-2

IC50 (MCF7): > 10 µM
IC50 (HeLa [1]): > 10 µM
IC50 (PC-3 [2]): > 10 µM
SMILES: Cc1[nH]c2c(c1-c1nnc(-c3ccc(Cl)c(Cl)c3)[se]1)Cc1ccccc1-2

SMILES: Cc1[nH]c2c(c1-c1nnc(-c3ccccc3)s1)Cc1ccccc1-2
inhibition (Tubulin (Homo sapiens) [3]): Active
IC50 (MCF7): 0.555 µM
viability at 1 µM (HeLa [4]): 63.8%
Activity (HeLa [5]): 9.2%
Activity (PC-3 [6]): 60.84%
inhibition (HeLa [7]): Active
Activity (PC-3 [8]): 34.04%
Activity (HFF-1): Non-Toxic
Activity (PC-3 [9]): 23.79%
Activity (HeLa [10]): 26.59%
Activity (HeLa [11]): 4.3%
Activity (PC-3 [12]): 15.37%
Activity (PC-3 [13]): 44.45%
Activity (HeLa [14]): 33.03%
Activity (PC-3 [15]): 21.51%
IC50 (HeLa [1]): 0.324 µM
Activity (HeLa [16]): 56.51%
Activity (HeLa [17]): 40.38%
Activity (HeLa [18]): 22.7%
Activity (NB1): Non-Toxic
IC50 (PC-3 [2]): 0.38 µM
Activity (HeLa [19]): 22.86%
Activity (HeLa [20]): 20.62%
inhibition (PC-3 [21]): Active
inhibition (Tubulin (Homo sapiens) [22]): Active
inhibition (Tubulin (Homo sapiens) [23]): Active

IC50 (MCF7): > 10 µM
IC50 (HeLa [1]): > 10 µM
IC50 (PC-3 [2]): > 10 µM
SMILES: Cc1[nH]c2c(c1-c1nnc(-c3ccc(Cl)cc3)s1)Cc1ccccc1-2

IC50 (MCF7): > 10 µM
IC50 (HeLa [1]): > 10 µM
IC50 (PC-3 [2]): > 10 µM
SMILES: Cc1[nH]c2c(c1-c1nnc(-c3ccc(C(C)(C)C)cc3)s1)Cc1ccccc1-2

IC50 (MCF7): > 10 µM
IC50 (HeLa [1]): > 10 µM
IC50 (PC-3 [2]): > 10 µM
SMILES: COc1cc(-c2nnc(-c3c(C)[nH]c4c3Cc3ccccc3-4)s2)cc(OC)c1OC
